# Assay results from PMC6502838, “Low potential enzymatic hydride transfer via highly cooperative and inversely functionalized flavin cofactors” (Nature Communications, 2019).
# Molecular target: T1, 2-Naphthoyl-CoA reductase (NCR) (uncultured Desulfobacterium sp., UniProt E1YD54)
# T1 construct: gene N47_G38220; Strep-tag fusion, E. coli host, monomer; TIM barrel 19-359, linker 360-400 with [4Fe-4S], FAD domain 401-503 + 626-674, alpha/beta domain 504-625
# T1 sequence (E1YD54 1-670): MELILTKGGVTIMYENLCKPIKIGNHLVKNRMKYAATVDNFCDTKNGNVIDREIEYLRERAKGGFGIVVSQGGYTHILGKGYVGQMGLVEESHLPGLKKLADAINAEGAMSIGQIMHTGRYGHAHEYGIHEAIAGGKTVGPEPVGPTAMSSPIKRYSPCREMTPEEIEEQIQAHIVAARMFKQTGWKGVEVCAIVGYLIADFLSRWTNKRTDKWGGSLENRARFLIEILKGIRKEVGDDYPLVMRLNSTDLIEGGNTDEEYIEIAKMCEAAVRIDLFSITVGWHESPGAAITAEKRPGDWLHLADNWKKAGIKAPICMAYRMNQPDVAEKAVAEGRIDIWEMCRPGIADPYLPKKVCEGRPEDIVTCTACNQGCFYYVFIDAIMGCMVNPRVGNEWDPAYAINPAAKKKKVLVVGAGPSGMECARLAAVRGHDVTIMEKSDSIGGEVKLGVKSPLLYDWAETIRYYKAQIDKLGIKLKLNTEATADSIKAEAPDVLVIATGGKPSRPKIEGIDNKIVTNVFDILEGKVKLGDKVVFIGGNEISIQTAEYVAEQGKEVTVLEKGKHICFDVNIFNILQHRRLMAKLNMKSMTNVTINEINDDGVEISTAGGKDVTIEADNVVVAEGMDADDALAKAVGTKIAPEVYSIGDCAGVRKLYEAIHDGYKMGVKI
# Test: X-ray crystal structure, soaked, […] A
# Assay type: binding
# Settings: crystals soaked with 0.5 mM NCoA, pH 6.5-7.0, 2 h, 4 C; active site, stacked on FMN; incompletely occupied
compound,measurement,value
CC(C)(COP(=O)(O)OP(=O)(O)OC[C@H]1O[C@@H](n2cnc3c(N)ncnc32)[C@H](O)[C@@H]1OP(=O)(O)O)[C@@H](O)C(=O)NCCC(=O)NCCSC(=O)c1ccc2ccccc2c1 [NCoA],"X-ray crystal structure, soaked, 2.2 A",structure in complex with the substrate NCoA and the product DHNCoA were determined
